Drawing on patent EP4650353A1 (Shanghai Institute of Materia Medica, Chinese Academy of …, priority 2023, dated 2024), this text covers EC50 for 24 compounds.

In this assay the target is T1, human GLP-1 receptor (Homo sapiens, UniProt P43220).
T1 construct: HA (N); expressed in transfected cells
The assay is described as follows: GLP-1 receptor-mediated agonist activity: cAMP level in hGLP-1R/HEK293 cell line (HTRF). Format: cell-based. A general note: Cyclic AMP is a second messenger, typically raised through Gs and lowered through Gi signalling.

The mark [1] stands for this setting: cAMP levels in hGLP-1R/HEK293 cell line, Table 1, read-out: determined EC50.
Where [2] appears, read: cAMP levels of the hGLP-1R/HEK293 cell line, Table 2, comparison with reference compounds, read-out: EC50.

Where two headings read alike, the source gives them in different places.

T1 sequence (P43220 24-463): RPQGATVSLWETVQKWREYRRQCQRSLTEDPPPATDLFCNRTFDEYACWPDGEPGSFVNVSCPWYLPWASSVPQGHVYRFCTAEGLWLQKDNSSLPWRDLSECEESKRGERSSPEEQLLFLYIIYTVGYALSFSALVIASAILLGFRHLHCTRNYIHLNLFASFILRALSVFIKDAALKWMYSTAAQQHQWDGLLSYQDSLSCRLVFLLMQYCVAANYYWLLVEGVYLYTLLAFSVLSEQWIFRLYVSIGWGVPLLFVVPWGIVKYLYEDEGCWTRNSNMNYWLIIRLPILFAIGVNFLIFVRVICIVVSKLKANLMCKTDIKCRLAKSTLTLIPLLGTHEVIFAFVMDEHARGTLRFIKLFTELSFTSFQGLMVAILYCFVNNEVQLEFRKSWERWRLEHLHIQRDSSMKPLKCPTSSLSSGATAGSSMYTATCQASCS
Procedure: The hGLP-1R/HEK293 cells were digested, centrifuged and resuspended in culture medium (DMEM+0.2% BSA, m/v), and the cell density was adjusted to 2×10^5 cells/mL. IBMX (3-isobutyl-1-methylxanthine, final concentration of 0.5 mM) was added to the cell suspension and added to a 384-well plate at 5 µL (1×10^3 cells)/well. The compound was dissolved in DMSO to prepare a stock solution with a concentration of 10 mM. The experiment started with a concentration of 100 µM which was diluted 10 times in a series of 7 dilution points, with the 8th point being DMSO. 2 µL of the test compound of different concentrations was added to 98 µL of culture medium, shaken and mixed, 5 µL was taken and added to a 384-well plate (final concentration of the test compound was 0-100 nM, final concentration of DMSO was 1%, v/v), which was then incubated in the incubator (37°C, 5% CO2) in the dark for 30 min, then 10 µL of cAMP detection reagent (LANCE Ultra cAMP Detecion Kit, PerkinElmer, #TRF0264) was added, mixed well, and reacted at room temperature in the dark for 1 h. After the reaction was completed, the HTRF signal was read using the Envision 2104 multi-function microplate reader. All samples were tested in triplicate wells, and the ratio of the acceptor-donor excitation signal in each single well was calculated using the formula Ratio = Signal 665nM/Signal 620nM. The HTRF signal ratio and the corresponding compound concentration were analyzed and processed using GraphPad Prism 8 software, and the EC50 value of the compound was obtained by fitting the S-type dose-response curve and calculating.

On to `COc1cc(C(=O)O)cc2c1nc(CN1CCC(c3cccc4c3OC(C)(c3ccc(C(F)(F)F)cn3)O4)CC1)n2C[C@@H]1CCO1` (stereo partly drawn) [Compound 55, 4-methoxy-2-((4-(2-methyl-2-(5-(trifluoromethyl)pyridin-2-yl)benzo[d][1,3]dioxol-4-yl)piperidin-1-yl)methyl)-1-(((S)-oxetan-2-yl)methyl)-1H-benzo[d]imidazole-6-carboxylic acid], for which the EC50 under setting [1] was 25.2 pM.

For the compound `CCOc1cc(C(=O)O)cc2c1nc(CN1CCN(c3cccc(OCc4ccc(C(F)(F)F)cc4F)n3)C=N1)n2C[C@@H]1CCO1` [Compound 24, (S)-4-ethoxy-2-((4-(6-((2-fluoro-4-(trifluoromethyl)benzyl)oxy)pyridin-2-yl)-5,6-dihydro-1,2,4-triazin-1(4H)-yl)methyl)-1-(oxetan-2-ylmethyl)-1H-benzo[d]imidazole-6-carboxylic acid], the EC50 under setting [1] is 5.3 pM. As to `N#Cc1ccc(COc2cccc(C3CCN(Cc4nc5ccc(C(=O)O)cc5n4C[C@@H]4CCO4)CC3)n2)c2occc12` [CN113480534 , Compound 3, reference compound], the EC50 under setting [2] was determined as 12.7 pM. For `CCOc1cc(C(=O)O)cc2c1nc(CN1CCN(c3cccc4c3OC(C)(c3cc(F)c(Cl)cc3F)O4)C=N1)n2C[C@@H]1CCO1` (stereo partly drawn) [Compound 79, 2-((4-(2-(4-chloro-2,5-difluorophenyl)-2-methylbenzo[d][1,3]dioxol-4-yl)-5,6-dihydro-1,2,4-triazin-1(4H)-yl)methyl)-4-ethoxy-1-(((S)-oxetan-2-yl)methyl)-1H-benzo[d]imidazole-6-carboxylic acid], the EC50 under setting [1] was found to be 44.2 pM. On to `CCOc1cc(C(=O)O)cc2c1nc(CN1CCN(c3cccc4c3OC(C)(c3ccc(C(F)(F)F)cn3)O4)C=N1)n2C[C@@H]1CCO1` (stereo partly drawn) [Compound 66, 4-ethoxy-2-((4-(2-methyl-2-(5-(trifluoromethyl)pyridin-2-yl)benzo[d][1,3]dioxol-4-yl)-5,6-dihydro-1,2,4-triazin-1(4H)-yl)methyl)-1-(((S)-oxetan-2-yl)methyl)-1H-benzo[d]imidazole-6-carboxylic acid], for which the EC50 under setting [1] is 5.2 pM.

`CCOc1cc(C(=O)O)cc2c1nc(CN1CCC(c3cccc4c3OC(C)(c3ccc(Cl)cn3)O4)CC1)n2C[C@@H]1CCO1` (stereo partly drawn) [Compound 39, 2-((4-(2-(5-chloropyridin-2-yl)-2-methylbenzo[d][1,3]dioxol-4-yl)piperidin-1-yl)methyl)-4-ethoxy-1-(((S)-oxetan-2-yl)methyl)-1H-benzo[d]imidazole-6-carboxylic acid]: under setting [1], the EC50 is 8 pM. Regarding `CCOc1cc(C(=O)O)cc2c1nc(CN1CCC(c3cccc4c3OC(C)(c3ccc(C(F)(F)F)cn3)O4)CC1)n2C[C@@H]1CCO1` (stereo partly drawn) [Compound 56, 4-ethoxy-2-((4-(2-methyl-2-(5-(trifluoromethyl)pyridin-2-yl)benzo[d][1,3]dioxol-4-yl)piperidin-1-yl)methyl)-1-(((S)-oxetan-2-yl)methyl)-1H-benzo[d]imidazole-6-carboxylic acid], the EC50 under setting [1] amounted to 9.8 pM. Regarding `COc1cc(C(F)(F)F)ccc1COc1cccc(C2CCN(Cc3nc4c(OC)cc(C(=O)O)cc4n3C[C@@H]3CCO3)CC2)n1` [Compound 51, (S)-4-methoxy-2-((4-(6-((2-methoxy-4-(trifluoromethyl)benzyl)oxy)pyridin-2-yl)piperidin-1-yl)methyl)-1-(oxetan-2-ylmethyl)-1H-benzo[d]imidazole-6-carboxylic acid], the EC50 under setting [1] stood at 1.6 pM. Still for that read-out and setting: as for `N#Cc1ccc(COc2cccc(N3C=NN(Cc4nc5c(OC6CC6)cc(C(=O)O)cc5n4C[C@@H]4CCO4)CC3)n2)c(F)c1` [Compound 13, (S)-2-((4-(6-((4-cyano-2-fluorobenzyl)oxy)pyridin-2-yl)-5,6-dihydro-1,2,4-triazin-1(4H)-yl)methyl)-4-cyclopropyloxy-1-(oxetan-2-ylmethyl)-1H-benzo[d]imidazole-6-carboxylic acid], the figure is 2.2 pM. On the same count and under the same terms, as for `[2H]C([2H])([2H])Oc1cc(C(=O)O)cc2c1nc(CN1CCN(c3cccc4c3OC(C)(c3ccc(Cl)cc3OC)O4)C=N1)n2C[C@@H]1CCO1` (stereo partly drawn) [Compound 84, 2-((4-(2-(4-chloro-2-methoxyphenyl)-2-methylbenzo[d][1,3]dioxol-4-yl)-5,6-dihydro-1,2,4-triazin-1(4H)-yl)methyl)-4-(methoxy-d3)-1-(((S)-oxetan-2-yl)methyl)-1H-benzo[d]imidazole-6-carboxylic acid], the figure is 9.8 pM. Same read-out and setting: as for `CCOc1cc(C(=O)O)cc2c1nc(CN1CCN(c3cccc4c3OC(C)(c3ccc(Cl)c(F)c3F)O4)C=N1)n2C[C@@H]1CCO1` (stereo partly drawn) [Compound 78, 2-((4-(2-(4-chloro-2,3-difluorophenyl)-2-methylbenzo[d][1,3]dioxol-4-yl)-5,6-dihydro-1,2,4-triazin-1(4H)-yl)methyl)-4-ethoxy-1-(((S)-oxetan-2-yl)methyl)-1H-benzo[d]imidazole-6-carboxylic acid], the figure is 11.5 pM; as for `COc1cc(C(=O)O)cc2c1nc(CN1CCC(c3cccc(OCc4ccc(C#N)c5c4OCC5)n3)CC1)n2C[C@@H]1CCO1` [Compound 15, (S)-2-((4-(6-((4-cyano-2,3-dihydrobenzofuran-7-yl)methoxy)pyridin-2-yl)piperidin-1-yl)methyl)-4-methoxy-1-(oxetan-2-ylmethyl)-1H-benzo[d]imidazole-6-carboxylic acid], 1.9 pM; as for `COc1cc(Cl)ccc1C1(C)Oc2cccc(C3CCN(Cc4nc5c(OC)cc(C(=O)O)cc5n4C[C@@H]4CCO4)CC3)c2O1` (stereo partly drawn) [Compound 57, 2-((4-(2-(4-chloro-2-methoxyphenyl)-2-methylbenzo[d][1,3]dioxol-4-yl)piperidin-1-yl)methyl)-4-methoxy-1-(((S)-oxetan-2-yl)methyl)-1H-benzo[d]imidazole-6-carboxylic acid], 2.8 pM.

Turning to `CCOc1cc(C(=O)O)cc2c1nc(CN1CCC(c3cccc4c3OC(C)(c3ccc(C(F)(F)F)cc3F)O4)CC1)n2C[C@@H]1CCO1` (stereo partly drawn) [Compound 54, 4-ethoxy-2-((4-(2-(2-fluoro-4-(trifluoromethyl)phenyl)-2-methylbenzo[d][1,3]dioxol-4-yl)piperidin-1-yl)methyl)-1-(((S)-oxetan-2-yl)methyl)-1H-benzo[d]imidazole-6-carboxylic acid], the EC50 under setting [1] came out at 7.7 pM. As for `COc1cc(C(=O)O)cc2c1nc(CN1CCC(c3cccc(OCc4ccc(C(F)(F)F)cc4F)n3)CC1)n2C[C@@H]1CCO1` [Compound 27, (S)-2-((4-(6-((2-fluoro-4-(trifluoromethyl)benzyl)oxy)pyridin-2-yl)piperidin-1-yl)methyl)-4-methoxy-1-(oxetan-2-ylmethyl)-1H-benzo[d]imidazole-6-carboxylic acid], the EC50 under setting [1] is 8.7 pM.

Regarding `O=C(O)c1ccc2nc(CN3CCC(c4cccnc4OCc4ccc(Cl)cc4F)CC3)n(C[C@@H]3CCO3)c2c1` [WO2019239371 , Example 1, reference compound], under setting [2], the EC50 was determined as 45.8 pM. On to `CCOc1cc(C(=O)O)cc2c1nc(CN1CCC(c3cccc(OCc4ccc(Cl)cc4F)n3)CC1)n2C[C@@H]1CCO1` [Compound 29, (S)-2-((4-(6-((4-chloro-2-fluorobenzyl)oxy)pyridin-2-yl)piperidin-1-yl)methyl)-4-ethoxy-1-(oxetan-2-ylmethyl)-1H-benzo[d]imidazole-6-carboxylic acid], for which the EC50 under setting [1] was determined as 2.2 pM. Take `COc1cc(C(=O)O)cc2c1nc(CN1CCC(c3ccccc3OCc3ccc(Cl)c4c3OCC4)CC1)n2C[C@@H]1CCO1` [Compound 45, (S)-2-((4-(2-((4-chloro-2,3-dihydrobenzofuran-7-yl)methoxy)phenyl)piperidin-1-yl)methyl)-4-methoxy-1-(oxetan-2-ylmethyl)-1H-benzo[d]imidazole-6-carboxylic acid]: the concentration for a half-maximal effect (EC50) under setting [1] was found to be 50.9 pM. With `CCOc1cc(C(=O)O)cc2c1nc(CN1CCN(c3cccc4c3OC(C)(c3ccc(Cl)cc3F)O4)C=N1)n2C[C@@H]1CCO1` (stereo partly drawn) [Compound 68, 2-((4-(2-(4-chloro-2-fluorophenyl)-2-methylbenzo[d][1,3]dioxol-4-yl)-5,6-dihydro-1,2,4-triazin-1(4H)-yl)methyl)-4-ethoxy-1-(((S)-oxetan-2-yl)methyl)-1H-benzo[d]imidazole-6-carboxylic acid], the EC50 under setting [1] was 6.4 pM. Still for that read-out and setting: as for `[2H]C([2H])([2H])Oc1cc(C(=O)O)cc2c1nc(CN1CCN(c3cccc(OCc4ccc(C#N)cc4F)n3)C=N1)n2C[C@@H]1CCO1` [Compound 12, (S)-2-((4-(6-((4-cyano-2-fluorobenzyl)oxy)pyridin-2-yl)-5,6-dihydro-1,2,4-triazin-1(4H)-yl)methyl)-4-(methoxy-d3)-1-(oxetan-2-ylmethyl)-1H-benzo[d]imidazole-6-carboxylic acid], the figure is 4 pM; as for `[2H]C([2H])([2H])Oc1cc(C(=O)O)cc2c1nc(CN1CCC(c3cccc4c3OC(C)(c3ccc(Cl)cc3F)O4)CC1)n2C[C@@H]1CCO1` (stereo partly drawn) [Compound 74, 2-((4-(2-(4-chloro-2-fluorophenyl)-2-methylbenzo[d][1,3]dioxol-4-yl)piperidin-1-yl)methyl)-4-(methoxy-d3)-1-(((S)-oxetan-2-yl)methyl)-1H-benzo[d]imidazole-6-carboxylic acid], 6.5 pM; as for `CCCOc1cc(C(=O)O)cc2c1nc(CN1CCN(c3cccc(OCc4ccc(C#N)cc4F)n3)C=N1)n2C[C@@H]1CCO1` [Compound 10, (S)-2-((4-(6-((4-cyano-2-fluorobenzyl)oxy)pyridin-2-yl)-5,6-dihydro-1,2,4-triazin-1(4H)-yl)methyl)-1-(oxetan-2-ylmethyl)-4-propoxy-1H-benzo[d]imidazole-6-carboxylic acid], 4.9 pM. Take `O=C(O)c1ccc2nc(CN3CCN(c4cccc(OCc5ccc(Cl)cc5F)n4)CC3)n(C[C@@H]3CCO3)c2c1` [WO2018109607 , Example 10A-08, reference compound]: the EC50 under setting [2] came out at 28.9 pM. As to `O=C(O)c1cc(OC2CC2)c2nc(CN3CCN(c4cccc(OCc5ccc(Cl)cc5F)n4)C=N3)n(C[C@@H]3CCO3)c2c1` [Compound 25, (S)-2-((4-(6-((4-chloro-2-fluorobenzyl)oxy)pyridin-2-yl)-5,6-dihydro-1,2,4-triazin-1(4H)-yl)methyl)-4-cyclopropyloxy-1-(oxetan-2-ylmethyl)-1H-benzo[d]imidazole-6-carboxylic acid], the EC50 under setting [1] amounted to 11.8 pM.

For orientation: EC50 means the concentration needed to bring the measured effect to its halfway point.
